Data published in patent US12129237B2, “Substituted diaminocarboxamide and diaminocarbonitrile pyrimidines, compositions thereof, and methods of treatment therewith” (SIGNAL PHARMACEUTICALS, LLC, priority 2011, dated 2024).

target: T1, JNK1 (Homo sapiens, UniProt P45983); assay: JNK1 biochemical assays (one or more of: time resolved fluorescence, Z'-LYTE Cascade, radioactive); conditions: Table 2; JNK1 IC50 activity level; read-out: Act. Level
T1 construct: purchased Carna Biosciences
T1 sequence (P45983 whole entry): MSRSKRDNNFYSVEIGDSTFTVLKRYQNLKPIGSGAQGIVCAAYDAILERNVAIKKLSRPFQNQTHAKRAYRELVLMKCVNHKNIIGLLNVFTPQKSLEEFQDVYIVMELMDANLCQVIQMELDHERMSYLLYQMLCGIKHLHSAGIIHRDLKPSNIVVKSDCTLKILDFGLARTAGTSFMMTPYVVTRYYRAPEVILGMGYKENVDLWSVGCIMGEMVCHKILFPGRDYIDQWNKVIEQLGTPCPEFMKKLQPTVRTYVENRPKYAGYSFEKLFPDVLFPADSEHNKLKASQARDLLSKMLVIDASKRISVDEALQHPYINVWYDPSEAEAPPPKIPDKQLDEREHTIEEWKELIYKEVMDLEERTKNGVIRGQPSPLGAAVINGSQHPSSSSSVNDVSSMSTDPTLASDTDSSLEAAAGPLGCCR

| IC50 [nM] | SMILES |
| --- | --- |
| < 200 | NC(=O)c1cnc(N[C@@H]2CCc3ncccc3C2)nc1N[C@@H]1CCCC[C@H](O)C1 [Example B-98, 4-((1R,3S)-3-hydroxycycloheptylamino)-2-((R)-5,6,7,8-tetrahydroquinolin-6-ylamino)pyrimidine-5-carboxamide] |
| 1000 to 10000 | CN(C)CCNc1ncc(C(N)=O)c(Nc2ccccc2)n1 [Example B-61, 2-(2-(dimethylamino)ethylamino)-4-(phenylamino)pyrimidine-5-carboxamide] |
| 200 to 800 | NC(=O)c1cnc(NCc2cccnc2)nc1Nc1ccccc1 [Example B-51, 4-(phenylamino)-2-(pyridin-3-ylmethylamino)pyrimidine-5-carboxamide] |
| < 200 | CCN(CC)c1ccc(Nc2ncc(C(N)=O)c(Nc3ccccc3)n2)cc1 [Example B-13, 2-(4-(diethylamino)phenylamino)-4-(phenylamino)pyrimidine-5-carboxamide] |
| 200 to 800 | NC(=O)c1cnc(NCCc2cccs2)nc1Nc1ccccc1 [Example B-42, 4-(phenylamino)-2-(2-(thiophen-2-yl)ethylamino)pyrimidine-5-carboxamide] |

same assay, conditions: Table 3; JNK1 IC50 activity level; read-out: Act. Level

| IC50 [nM] | SMILES |
| --- | --- |
| < 200 | N#Cc1cnc(N[C@H]2CC[C@H](OCC(F)(F)F)CC2)nc1N[C@@H]1CCC[C@H](O)C1 [Example C-14, 4-((1R,3S)-3-hydroxycyclohexylamino)-2-((1r,4R)-4-(2,2,2-trifluoroethoxy)cyclohexylamino) pyrimidine-5-carbonitril] |
| 200 to 800 | CC(C)(C)Nc1ncc(C#N)c(N[C@@H]2CCC[C@H](O)C2)n1 [Example C-7, 2-(tert-butylamino)-4-((1R,3S)-3-hydroxycyclohexylamino) pyrimidine-5-carbonitrile] |
| < 200 | C[C@@H]1CC[C@@H](Nc2nc(N[C@H]3CC[C@H](OCC(F)(F)F)CC3)ncc2C#N)C[C@H]1O [Example C-49] |
| < 200 | CO[C@H]1CC[C@H](Nc2ncc(C#N)c(N[C@@H]3CCC[C@H](O)C3)n2)CC1 [Example C-4, 4-((1R,3S)-3-hydroxycyclohexylamino)-2-((1r,4R)-4-methoxycyclohexylamino) pyrimidine-5-carbonitrile] |

same assay, conditions: one or more of the JNK1 biochemical assays; read-out: Act. Level (JNK1 IC50 activity level)

| SMILES | IC50 [nM] |
| --- | --- |
| NC(=O)c1cnc(NC23CCC(O)(CC2)CC3)nc1NC12CC(C1)C2 [Example 417, 4-(bicyclo[1.1.1]pentan-1-ylamino)-2-(4-hydroxybicyclo[2.2.2]octan-1-ylamino)pyrimidine-5-carboxamide] | < 200 |
| NC(=O)c1cnc(N[C@H]2CC[C@H](OC(F)F)CC2)nc1N[C@@H]1CCC[C@H]1CO [Example 329, 2-((1r,4R)-4-(difluoromethoxy)cyclohexylamino)-4-((1R,2R)-2-(hydroxymethyl)cyclopentylamino)pyrimidine-5-carboxamide] | < 200 |
| CO[C@H]1CC[C@H](Nc2ncc(C(N)=O)c(N[C@@H](C)C(C)C)n2)CC1 [Example 283, 2-((1r,4S)-4-methoxycyclohexylamino)-4-((S)-3-methylbutan-2-ylamino)pyrimidine-5-carboxamide] | < 200 |
| NC(=O)c1cnc(NC23CCC(O)(CC2)CC3)nc1NC1CCC1 [Example 232, 4-(cyclobutylamino)-2-(4-hydroxybicyclo[2.2.2]octan-1-ylamino)pyrimidine-5-carboxamide] | < 200 |

More lines, now with the values ahead:

| IC50 [nM] | SMILES |
| --- | --- |
| < 200 | CC(C)(C)Nc1nc(N[C@H]2CC[C@H](OC3CC3)CC2)ncc1C(N)=O [Example 304, 4-(tert-butylamino)-2-((1r,4r)-4-cyclopropoxycyclohexylamino)pyrimidine-5-carboxamide] |
| < 200 | CCO[C@H]1CC[C@H](Nc2ncc(C(N)=O)c(N[C@H](C)C(C)(C)C)n2)CC1 [Example 277, 4-((R)-3,3-dimethylbutan-2-ylamino)-2-((1r,4R)-4-ethoxycyclohexylamino)pyrimidine-5-carboxamide] |
| < 200 | C[C@@H](Nc1nc(N[C@@H]2CCC[C@H](O)C2)ncc1C(N)=O)C1CC1 [Example 423, 4-((R)-1-cyclopropylethylamino)-2-((1R,3S)-3-hydroxycyclohexylamino)pyrimidine-5-carboxamide] |
| < 200 | CCC(C)(C)Nc1ncc(C(N)=O)c(N[C@@H]2CCC[C@H](O)C2)n1 [Example 351, 4-((1R,3S)-3-hydroxycyclohexylamino)-2-(tert-pentylamino)pyrimidine-5-carboxamide] |
| 200 to 800 | CC1(C)CCC(Nc2nc(NC(C)(C)C)ncc2C(N)=O)C(O)C1 (stereo not shown) [Example 342, 2-(tert-butylamino)-4-(2-hydroxy-4,4-dimethylcyclohexylamino)pyrimidine-5-carboxamide] |
| < 200 | C[C@@H]1CC[C@@H](Nc2nc(NCC(C)(C)C)ncc2C(N)=O)C[C@H]1O [Example 367, 4-((1R,3R,4R)-3-hydroxy-4-methylcyclohexylamino)-2-(neopentylamino)pyrimidine-5-carboxamide] |

same assay, conditions: tested in one or more of the JNK1 biochemical assays; read-out: Act. Level (JNK1 biochemical assay IC50 activity level)

| SMILES | IC50 [nM] |
| --- | --- |
| CN(C)C(=O)[C@H]1CC[C@@H](Nc2nc(NC3CCC3)ncc2C(N)=O)CC1 [Example A-134, 2-(cyclobutylamino)-4-((1s,4s)-4-(dimethylcarbamoyl)cyclohexylamino)pyrimidine-5-carboxamide] | 1000 to 10000 |
| CNC(=O)[C@H]1CC[C@H](Nc2ncc(C(N)=O)c(NC(C)C)n2)CC1 [Example A-199, 4-(isopropylamino)-2-((1r,4r)-4-(methylcarbamoyl)cyclohexylamino)pyrimidine-5-carboxamide] | < 200 |
| COC[C@H]1CC[C@H](Nc2ncc(C(N)=O)c(N[C@H]3CCC(O)C3)n2)CC1 (stereo partly drawn) [Example A-94, 4-((1S,3R)-3-hydroxycyclopentylamino)-2-((1r,4S)-4-(methoxymethyl)cyclohexylamino)pyrimidine-5-carboxamide] | < 200 |

The remaining lines, values ahead:

| IC50 [nM] | SMILES |
| --- | --- |
| < 200 | CCO[C@H]1CC[C@H](Nc2ncc(C(N)=O)c(NC[C@H](C)O)n2)CC1 [Example A-102, 2-((1r,4S)-4-ethoxycyclohexylamino)-4-((S)-2-hydroxypropylamino)pyrimidine-5-carboxamide] |
| < 200 | CCO[C@H]1CC[C@H](Nc2ncc(C(N)=O)c(N[C@H]3CCOC3)n2)CC1 [Example A-105, 2-((1r,4S)-4-ethoxycyclohexylamino)-4-((S)-tetrahydrofuran-3-ylamino)pyrimidine-5-carboxamide] |
| < 200 | CC(C)CNc1nc(N[C@H]2CC[C@H](O)CC2)ncc1C(N)=O [Example A-88, 2-((1r,4r)-4-hydroxycyclohexylamino)-4-(isobutylamino)pyrimidine-5-carboxamide] |
